Measured values taken from paper PMC8769072, “Proteome‐scale mapping of binding sites in the unstructured regions of the human proteome” (Molecular Systems Biology, 2022).
Where two headings read alike, the source gives them in different places. Where a SMILES comes first, the peptide text is derived from it. Where no end group is shown, it is not given here. [ ]: non-standard residue; d: D form. pT = C[C@@H](OP(=O)(O)O)[C@H](N)C(=O)O

Experiments:
Assay type in all cases: binding
[1] = molecular target: T1, CLTC (Homo sapiens, UniProt Q00610); assay: FP competition, CLTC; settings: competitive FP assay
T1 construct: Q00610; CLTC; Clathrin propeller; 364; pETM33; Genescript; 6-His-GST; made in house; host or cells: Escherichia coli BL21(DE3) gold (stated for the bait preparation)
T1 sequence (Q00610 1-364): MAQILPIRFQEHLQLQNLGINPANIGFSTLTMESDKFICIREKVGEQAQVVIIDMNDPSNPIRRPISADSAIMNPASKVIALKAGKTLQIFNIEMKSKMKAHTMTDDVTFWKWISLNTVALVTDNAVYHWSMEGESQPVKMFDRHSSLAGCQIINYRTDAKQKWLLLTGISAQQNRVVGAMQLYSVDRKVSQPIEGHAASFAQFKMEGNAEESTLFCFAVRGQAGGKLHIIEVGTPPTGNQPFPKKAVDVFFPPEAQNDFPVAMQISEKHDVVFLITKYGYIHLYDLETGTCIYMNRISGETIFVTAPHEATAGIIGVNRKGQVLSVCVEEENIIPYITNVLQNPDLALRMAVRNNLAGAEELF

[2] = molecular target: T2, KPNA4 ARM (Homo sapiens, UniProt O00629); assay: FP competition, KPNA4 ARM major pocket (FITC-Myc probe); settings: FP competition with FITC-Myc320-328 probe for the major pocket; 50 mM KPO4 pH 7.5; n = 3 technical replicates
T2 construct: O00629; KPNA4; Arm; 68; 487; pETM33/pETM41; Genescript; made in house; host or cells: bacteria (E. coli BL21(DE3) gold is named only for the phage-selection preparations)
Description: (§1) Like other importins, KPNA4 has two distinct NLS‐binding pockets on the surface of an armadillo (ARM) repeat fold (major pocket, ARM 2–4; minor pocket, ARM 6–8; Fig 5B) (Smith et al, [2018]). Bipartite NLSs are usually 17–19 amino acids long and engage both pockets. Monopartite NLSs are short basic stretches, divided into five classes (Kosugi et al, [2009]): class I KR[KR]R or K[KR]RK, class II [PR]xxKR[^DE][KR] (where ^ indicates “not”), class III KRx[WFY]xxAF, class IV [RP]xxKR[KR][^DE], and class V LGKR[KR][WFY]. The class I and class II motifs preferentially interact with the major pocket (Kosugi et al, [2009]). In contrast, class III and class IV NLSs preferentially bind to the minor pocket. Using KPNA4 as a bait against the HD2 P8 library we identified 33 peptides found in 32 proteins. Of the 26 proteins for which information was available, 22 proteins were annotated as having nuclear or nucleolar localization in the UniProt database. To gain additional information we combined the data generated for KPNA4 by screening against the complete P8 HD2 library, with the results generated using two relevant sublibraries (the cytoplasmic and nuclear, and nuclear sublibraries) resulting in a set of 92 peptides containing NLS‐like sequences found in 76 proteins. Using these peptides we could generate consensus motifs that matched four of the previously reported NLS classes (Fig 5A; class I‐IV). […] Three peptides bound only to the major pocket. Eight peptides with class III motif and one KRxH‐containing peptide only bound to the minor pocket. Five peptides outcompeted both probe peptides, which may be explained by the amino acid sequence matching both class II and class III motifs (e.g., 1135‐ PSPKRKL ‐1139 in ZNF532; Fig 5), and possibly by cross specificity of the two binding pockets.

[3] = molecular target: T3, KEAP1 Kelch (Homo sapiens, UniProt Q14145); assay: FP competition, KEAP1 Kelch
T3 construct: Q14145; KEAP1; Kelch; 321; 609; pETM33; Genescript; made in house; host or cells: bacteria (E. coli BL21(DE3) gold is named only for the phage-selection preparations)

[4] = molecular target: T4, KPNB1 HEAT (Homo sapiens, UniProt Q14974); assay: FP competition, KPNB1 HEAT
T4 construct: Q14974; KPNB1; HEAT; 485; pETM41; Genescript; 6-His-MBP (from vector pETM41) (cleaved yes); made in house; host or cells: bacteria (E. coli BL21(DE3) gold is named only for the phage-selection preparations)

[5] = molecular target: T2, KPNA4 ARM; assay: FP competition, KPNA4 ARM minor pocket (FITC-NCOR2 probe)
Description: as §1

[6] = molecular target: T5, TLN1 PTB (Homo sapiens, UniProt Q9Y490); assay: FP competition, TLN1 PTB
T5 construct: Q9Y490; TLN1; PTB; 309; pHH0103; Sidhu Lab (PMID: 33438817); made in house; host or cells: bacteria (E. coli BL21(DE3) gold is named only for the phage-selection preparations)

[7] = molecular target: T6, MDM2 SWIB (Homo sapiens, UniProt Q00987); assay: FP competition, MDM2 SWIB
T6 construct: Q00987; MDM2; SWIB; 17; 125; pETM33; Genescript; His-GST (cleaved yes); made in house; host or cells: bacteria (E. coli BL21(DE3) gold is named only for the phage-selection preparations)

## Ac-LIDLPLIDFCDTPEAHY [GTSE1]
[1]
  IC50: 97 µM

## CC[C@H](C)[C@H](NC(=O)[C@H](CC(C)C)NC(=O)[C@@H]1CCCN1C(=O)[C@H](CC(C)C)NC(=O)[C@H](CC(=O)O)NC(=O)[C@@H](NC(=O)[C@H](CC(C)C)NC(C)=O)[C@@H](C)CC)C(=O)N[C@@H](CC(=O)O)C(=O)N[C@@H](Cc1ccccc1)C(=O)N[C@@H](CS)C(=O)N[C@@H](CC(=O)O)C(=O)N[C@H](C(=O)N1CCC[C@H]1C(=O)N[C@@H](CCC(=O)O)C(=O)N[C@@H](C)C(=O)N[C@@H](Cc1c[nH]cn1)C(=O)N[C@@H](Cc1ccc(O)cc1)C(=O)O)[C@@H](C)OP(=O)(O)O [GTSE1 pT] (Ac-LIDLPLIDFCD[pT]PEAHY-OH)
[1]
  IC50: 87 µM

## ERENPSKRSRIERDID-NH2 [CTDSPL2]
[2]
  IC50: 1.9 µM

## Ac-LIYVDKENGEPGTRVV-NH2 [PTTG1]
[3]
  IC50: 3 µM

## Ac-YMQHLQEQQQQQMHLQ-NH2 [TREF1]
[3]
  IC50: 490 µM

## Ac-YVSGNLIDLCGNQGLP [MITF Y265C]
[1]
  IC50: 220 µM

## Ac-NPPVATFVFGQSSNPY-NH2 [NUP153]
[4]
  IC50: 49 µM

## DHQFPAKRPRLSEPQG-NH2 [HJURP]
[2]
  IC50: 0.076 µM
[5]
  IC50: 170 µM

## VGPLTPLWTYPATAAG-NH2 [NYAP1]
[6]
  IC50: 62 µM

## IDPSTGERFPVTDAVN-NH2 [PLEC 4459-4474]
[3]
  IC50: 6.1 µM

## TPEDDRSFQTVWATVF [KIAA1671]
[7]
  IC50: 73 µM

## Ac-GIIDPSTGERFPVTDY-NH2 [PLEC 4457-4471]
[3]
  IC50: 1.5 µM

## DLIFTDSKLYIPLE-NH2 [TPTE]
[6]
  IC50: 15 µM

## VEPETKRLKLAASEDH-NH2 [ZRANB3]
[2]
  IC50: 0.24 µM

## AKWDTANNPLYKEATS-NH2 [ITB3]
[6]
  IC50: 1430 µM
[6]; FP competition with FITC-PIP5K1C probe
  Ki: 500 µM

## Ac-YDEEKGEFLPIQPAQH-NH2 [NFE2L2 T80K]
[3]
  IC50: 2540 µM

## YDPVTGEWKSLAKLPE-NH2 [KLHL24]
[3]
  IC50: 80 µM

## Ac-VLPDCLTDGSDVVSDY-NH2 [CFAP36]
[3]; FP competition with FITC-NFE2L1 228-243 probe, protein at 4x KD and 10 nM probe in master mix, 50 mM KPO4 pH 7.5, Ki calculated from IC50, triplicates
  Ki: > 2040 µM
[3]; FP competition with FITC-NFE2L1 228-243 probe, protein at 4x KD and 10 nM probe in master mix, 50 mM KPO4 pH 7.5, triplicates
  IC50: > 2040 µM
[3]; FP competition with FITC-NFE2L1 probe
  binding to KEAP1 Kelch, result in words: did not bind at all
